According to PubChem BioAssay AID1963837 (Molecular Pharmacology Branch, DTP, NCI, 2024):
“And” between values parts separate entries of the source, which are not always exact repeats. Equal entries are not always repeated.

Test system: 843126-344-R-J1-PDC complex spheroid viability
Test: Anticancer human tumor 843126-344-R-J1-PDC patient-derived melanoma cell line growth inhibition [POLQ]
Conditions: for viability, T/C: stronger effect = lower value
Method in brief: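 Complex spheroid viability model combining PDC tumour cells with endothelial (HUVEC) and MSC stromal cells. Novobiocin, ART-558 or RP6685 were tested singly and in combination with standard and investigational anticancer drugs. Each was titrated in half-log steps from near clinical Cmax, or from 10 microM where Cmax was unknown.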

[1] = curve of first compound, second compound 0.0316 µM
[2] = curve of first compound, second compound 0.1 µM
[3] = curve of first compound, second compound 0.316 µM
[4] = curve of first compound, second compound 1 µM
[5] = curve of first compound, second compound 3.16 µM
[6] = curve of first compound, second compound 10 µM
[7] = second compound 0.0316 µM, first compound 0.0316 µM
[8] = second compound 0.0316 µM, first compound 0.1 µM
[9] = second compound 0.0316 µM, first compound 0.316 µM
[10] = second compound 0.0316 µM, first compound 1 µM
[11] = second compound 0.0316 µM, first compound 3.16 µM
[12] = second compound 0.0316 µM, first compound 10 µM
[13] = second compound 0.1 µM, first compound 0.0316 µM
[14] = second compound 0.1 µM, first compound 0.1 µM
[15] = second compound 0.1 µM, first compound 0.316 µM
[16] = second compound 0.1 µM, first compound 1 µM
[17] = second compound 0.1 µM, first compound 3.16 µM
[18] = second compound 0.1 µM, first compound 10 µM
[19] = second compound 0.316 µM, first compound 0.0316 µM
[20] = second compound 0.316 µM, first compound 0.1 µM
[21] = second compound 0.316 µM, first compound 0.316 µM
[22] = second compound 0.316 µM, first compound 1 µM
[23] = second compound 0.316 µM, first compound 3.16 µM
[24] = second compound 0.316 µM, first compound 10 µM
[25] = second compound 1 µM, first compound 0.0316 µM
[26] = second compound 1 µM, first compound 0.1 µM
[27] = second compound 1 µM, first compound 0.316 µM
[28] = second compound 1 µM, first compound 1 µM
[29] = second compound 1 µM, first compound 3.16 µM
[30] = second compound 1 µM, first compound 10 µM
[31] = second compound 3.16 µM, first compound 0.0316 µM
[32] = second compound 3.16 µM, first compound 0.1 µM
[33] = second compound 3.16 µM, first compound 0.316 µM
[34] = second compound 3.16 µM, first compound 1 µM
[35] = second compound 3.16 µM, first compound 3.16 µM
[36] = second compound 3.16 µM, first compound 10 µM
[37] = second compound 10 µM, first compound 0.0316 µM
[38] = second compound 10 µM, first compound 0.1 µM
[39] = second compound 10 µM, first compound 0.316 µM
[40] = second compound 10 µM, first compound 1 µM
[41] = second compound 10 µM, first compound 3.16 µM
[42] = second compound 10 µM, first compound 10 µM
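For viability, T/C in this document: spheroids exposed to drugs for seven days before readout.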

Work on O=C(c1cc(Cc2n[nH]c(=O)c3ccccc23)ccc1F)N1CCN(C(=O)C2CC2)CC1 + COC1C(OC(N)=O)C(O)C(Oc2ccc3c(O)c(NC(=O)c4ccc(O)c(CC=C(C)C)c4)c(=O)oc3c2C)OC1(C)C yielded an IC50 [1] of over 10 µM, an IC50 [2] of over 10 µM and an IC50 [3] of over 10 µM. It also gave an IC50 [4] of over 10 µM, an IC50 [5] of over 10 µM and an IC50 [6] of over 10 µM. It also gave a viability, T/C [7] of 81.4%, a viability, T/C [8] of 94.9% and a viability, T/C [9] of 76.9%. It also gave a viability, T/C [10] of 82.5%, a viability, T/C [11] of 80.7% and a viability, T/C [12] of 63.8%. The viability, T/C [13] was 76.2%, the viability, T/C [14] was 98.7% and the viability, T/C [15] was 90.2%. It also gave a viability, T/C [16] of 71.9%, a viability, T/C [17] of 80.7% and a viability, T/C [18] of 61.6%. It also gave a viability, T/C [19] of 91.8%, a viability, T/C [20] of 71.1% and a viability, T/C [21] of 97.9%. It also gave a viability, T/C [22] of 81.5%, a viability, T/C [23] of 80.7% and a viability, T/C [24] of 73.5%. The viability, T/C [25] was 83.3%, the viability, T/C [26] was 85% and the viability, T/C [27] was 92.8%. The viability, T/C [28] was 92.3%, the viability, T/C [29] was 100% and the viability, T/C [30] was 63.6%. It also gave a viability, T/C [31] of 71.1%, a viability, T/C [32] of 81.7% and a viability, T/C [33] of 106%. For the same compound, the viability, T/C [34] was 76.5%, the viability, T/C [35] was 83.5% and the viability, T/C [36] was 66.1%. The viability, T/C [37] was 91%, the viability, T/C [38] was 72% and the viability, T/C [39] was 96.1%. For the same compound, the viability, T/C [40] was 80.6%, the viability, T/C [41] was 80.6% and the viability, T/C [42] was 61%.

Work on CCc1c2c(nc3ccc(O)cc13)-c1cc3c(c(=O)n1C2)COC(=O)[C@]3(O)CC + Nc1ccc(C#CCN(C(=O)Cc2ncc(C(F)(F)F)cc2C(F)(F)F)c2ccc(F)cc2)nn1 yielded an IC50 [1] of over 1 µM, an IC50 [2] of over 1 µM and an IC50 [3] of over 1 µM. For the same compound, the IC50 [4] was over 1 µM, the IC50 [5] was over 1 µM and the IC50 [6] was over 1 µM. It also gave a viability, T/C (second compound 0.0316 µM, first compound 0.00316 µM) of 68.2%, a viability, T/C (second compound 0.0316 µM, first compound 0.01 µM) of 60% and a viability, T/C [7] of 63.9%. It also gave a viability, T/C [8] of 64.7%, a viability, T/C [9] of 58.8% and a viability, T/C [10] of 49.1%. The viability, T/C (second compound 0.1 µM, first compound 0.00316 µM) was 64.3%, the viability, T/C (second compound 0.1 µM, first compound 0.01 µM) was 47.4% and the viability, T/C [13] was 59%. The viability, T/C [14] was 65.8%, the viability, T/C [15] was 65% and the viability, T/C [16] was 47.9%. For the same compound, the viability, T/C (second compound 0.316 µM, first compound 0.00316 µM) was 69.5%, the viability, T/C (second compound 0.316 µM, first compound 0.01 µM) was 56.3% and the viability, T/C [19] was 61.3%. For the same compound, the viability, T/C [20] was 57.2%, the viability, T/C [21] was 63.3% and the viability, T/C [22] was 48.5%. The viability, T/C (second compound 1 µM, first compound 0.00316 µM) was 75.3%, the viability, T/C (second compound 1 µM, first compound 0.01 µM) was 46.9% and the viability, T/C [25] was 61.3%. For the same compound, the viability, T/C [26] was 62.8%, the viability, T/C [27] was 66.5% and the viability, T/C [28] was 46.3%. For the same compound, the viability, T/C (second compound 3.16 µM, first compound 0.00316 µM) was 70.3%, the viability, T/C (second compound 3.16 µM, first compound 0.01 µM) was 64.5% and the viability, T/C [31] was 52.7%. It also gave a viability, T/C [32] of 72.5%, a viability, T/C [33] of 63.3% and a viability, T/C [34] of 52.2%. For the same compound, the viability, T/C (second compound 10 µM, first compound 0.00316 µM) was 67.7%, the viability, T/C (second compound 10 µM, first compound 0.01 µM) was 55.2% and the viability, T/C [37] was 54.6%. The viability, T/C [38] was 69.8%, the viability, T/C [39] was 65.4% and the viability, T/C [40] was 41%.

With CC[C@@]1(O)C(=O)OCc2c1cc1n(c2=O)Cc2cc3c(CN(C)C)c(O)ccc3nc2-1 the viability, T/C (compound 0.000316 µM) was 84.4% and 108% and 96.4%, the viability, T/C (compound 0.001 µM) was 99.5% and 88.4% and 89.3% and the viability, T/C (compound 0.00316 µM) was 92.7% and 105% and 96.4%. The viability, T/C (compound 0.01 µM) was 88.6% and 93.8% and 85.1%, the viability, T/C (compound 0.0316 µM) was 73% and 63.1% and 67.9% and the viability, T/C (compound 0.1 µM) was 51.1% and 55.8% and 48.8%. For the same compound, the IC50 (curve of compound) was > 0.1 µM and 0.0933 µM.

In the case of O=C(c1cc(Cc2n[nH]c(=O)c3ccccc23)ccc1F)N1CCN(C(=O)C2CC2)CC1, the viability, T/C (compound 0.0316 µM) is reported as 91.6% and 93.9% and 74.9%, the viability, T/C (compound 0.1 µM) is reported as 78.7% and 90% and 91.5% and the viability, T/C (compound 0.316 µM) is reported as 103% and 77.3% and 93.6%. For the same compound, the viability, T/C (compound 1 µM) was 74.1% and 76.7% and 83%, the viability, T/C (compound 3.16 µM) was 86.2% and 79.5% and 87.6% and the viability, T/C (compound 10 µM) was 81% and 72.1% and 82.1%. For the same compound, the IC50 (curve of compound) was over 10 µM.

O=C(c1cc(Cc2n[nH]c(=O)c3ccccc23)ccc1F)N1CCN(C(=O)C2CC2)CC1 + Cc1cccc(N(C)C(=O)C2C(O)CCN2c2nc(C)cc(C(F)(F)F)c2C#N)c1 gave an IC50 [1] of over 10 µM, an IC50 [2] of over 10 µM and an IC50 [3] of over 10 µM. The IC50 [4] was over 10 µM, the IC50 [5] was over 10 µM and the IC50 [6] was over 10 µM. For the same compound, the viability, T/C [7] was 116%, the viability, T/C [8] was 99.2% and the viability, T/C [9] was 84.3%. For the same compound, the viability, T/C [10] was 82.3%, the viability, T/C [11] was 91.9% and the viability, T/C [12] was 74.2%. It also gave a viability, T/C [13] of 110%, a viability, T/C [14] of 98.7% and a viability, T/C [15] of 92.7%. The viability, T/C [16] was 90.9%, the viability, T/C [17] was 93.7% and the viability, T/C [18] was 67.1%. It also gave a viability, T/C [19] of 95.7%, a viability, T/C [20] of 78.8% and a viability, T/C [21] of 89.4%. It also gave a viability, T/C [22] of 91.5%, a viability, T/C [23] of 82% and a viability, T/C [24] of 75.7%. It also gave a viability, T/C [25] of 85.4%, a viability, T/C [26] of 97.8% and a viability, T/C [27] of 96.9%. The viability, T/C [28] was 97.8%, the viability, T/C [29] was 84.1% and the viability, T/C [30] was 77.6%. For the same compound, the viability, T/C [31] was 91.5%, the viability, T/C [32] was 83.3% and the viability, T/C [33] was 88.8%. For the same compound, the viability, T/C [34] was 89.6%, the viability, T/C [35] was 84.2% and the viability, T/C [36] was 71.2%. It also gave a viability, T/C [37] of 83.8%, a viability, T/C [38] of 102% and a viability, T/C [39] of 85.8%. It also gave a viability, T/C [40] of 92.1%, a viability, T/C [41] of 103% and a viability, T/C [42] of 78.8%.
